Assay results as given in paper PMC3082897 (2010).
Where two headings read alike, the source gives them in different places.

Legend:
[1] = biological target: T1, UMPKmt (uridine monophosphate kinase, Rv2883c) (Mycobacterium tuberculosis, UniProt P9WHK5); experiment: coupled spectrophotometric kinase assay; format: biochemical
Target sequence in this assay (P9WHK5 whole entry, looked up): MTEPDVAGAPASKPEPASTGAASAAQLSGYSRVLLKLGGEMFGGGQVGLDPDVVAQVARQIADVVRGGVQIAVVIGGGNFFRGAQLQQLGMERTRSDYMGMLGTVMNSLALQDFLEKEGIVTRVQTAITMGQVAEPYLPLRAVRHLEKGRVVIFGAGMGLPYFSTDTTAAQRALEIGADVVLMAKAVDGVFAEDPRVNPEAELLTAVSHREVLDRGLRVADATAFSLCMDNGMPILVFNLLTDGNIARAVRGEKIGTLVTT

[2] = biological target: T1, UMPKmt (uridine monophosphate kinase, Rv2883c); experiment: X-ray crystal structure; format: biochemical
Target sequence in this assay (P9WHK5 whole entry): as the sequence (P9WHK5 whole entry, looked up) above

[3] = biological target: T1, UMPKmt (uridine monophosphate kinase, Rv2883c); experiment: coupled spectrophotometric kinase assay; format: biochemical; remark: listed apart in the source
Target sequence in this assay (P9WHK5 whole entry, looked up): as above

[4] = biological target: T1, UMPKmt (uridine monophosphate kinase, Rv2883c); experiment: coupled spectrophotometric kinase assay; format: biochemical; remark: listed apart in the source
Target sequence in this assay (P9WHK5 whole entry, looked up): as above

[5] = test system: O=c1ccn([C@@H]2O[C@H](COP(=O)(O)O)[C@@H](O)[C@H]2O)c(=O)[nH]1; experiment: purified protein

Molecule	IC50 [1] [µM]	further results
O=c1[nH]c(=O)n([C@@H]2O[C@H](COP(=O)(O)OP(=O)(O)OP(=O)(O)O)[C@@H](O)[C@H]2O)cc1Br [5Br-UTP]	100	–
O=c1[nH]c(=O)n([C@@H]2O[C@H](COP(=O)(O)OP(=O)(O)OP(=O)(O)O)[C@@H](O)[C@H]2O)cc1I [5I-UTP]	20	–
Nc1nc2c(ncn2[C@@H]2O[C@H](COP(=O)(O)OP(=O)(O)OP(=O)(O)O)[C@@H](O)[C@H]2O)c(=O)[nH]1 [GTP]	–	EC50 [2]: 100 µM
O=c1ccn([C@@H]2O[C@H](COP(=O)(O)OP(=O)(O)OP(=O)(O)O)[C@@H](O)[C@H]2O)c(=O)[nH]1 [UTP]	–	IC50 [3]: 100 µM
Nc1nc2c(ncn2[C@H]2C[C@H](O)[C@@H](COP(=O)(O)OP(=O)(O)OP(=O)(O)O)O2)c(=O)[nH]1 [dGTP]	–	coupled spectrophotometric kinase assay (activation, similar to GTP) [4]: dGTP, Mant-GTP and 6-methylthio GTP exhibited similar properties to GTP in terms of both affinity and extent of activation
Cc1cn([C@H]2C[C@H](O)[C@@H](COP(=O)(O)OP(=O)(O)OP(=O)(O)O)O2)c(=O)[nH]c1=O [dTTP]	400	–
O=c1ccn([C@H]2C[C@H](O)[C@@H](COP(=O)(O)OP(=O)(O)OP(=O)(O)O)O2)c(=O)[nH]1 [dUTP]	240	–
UMPKmt (uridine monophosphate kinase, Rv2883c) (Mycobacterium tuberculosis H37Rv)	–	Km [5]: 19.6 ± 1.8 µM
